# Measurements reported in patent US10519111B2, “UV absorbing compounds, compositions comprising same and uses thereof” (CORAL SUNSCREEN PTY LTD, priority 2013, dated 2019).
# Experiments:
# [1] = UV absorption properties (λmax, molar extinction coefficient ε, efficiency E 1%, 1 cm); type: physicochemical
# [2] = Critical wavelength (λcrit), approximate in-house measurement; type: physicochemical
# From the text: As the precise test for critical wavelength was unable to be replicated exactly by the inventors due to the need for specialist equipment and a specific calibration of the spectrophotometer, these values are only approximate to a degree. […] This represents a highly useful result and so, compounds based around this benzoyl substitution pattern shown, are especially preferred.
# [3] = Table 7, values in order of the λmax values
# [4] = Table 9, C3-trifluoroacetylated N-aryl enamines
# [5] = Table 10, bis and mono enamine compounds
smiles,measurement,setting,value
COc1ccc(/C=C/C(=O)C2=CN(CC(C)C)CCC2(C)C)cc1 [drawing 114],λmax,"[1]; Table 7, unsaturated compounds",364 nm
same,"E (1%, 1 cm)",[1]; [3],493
same,ε,[1]; [3],16150 M⁻¹ cm⁻¹
same,λcrit,[2]; Table 7,386 nm
C=C/C=C/C(=O)C1=CN(CC(C)C)CCC1(C)C [drawing 117],λmax,"[1]; Table 7, unsaturated compounds",352 nm
same,"E (1%, 1 cm)",[1]; [3],730
same,ε,[1]; [3],18000 M⁻¹ cm⁻¹
same,λcrit,[2]; Table 7,381 nm
CCC(=O)C1=CN(c2ccccc2)CCC1(C)C [drawing 122],"E (1%, 1 cm)",[1]; Table 8a,947
same,ε,[1]; Table 8a,23000 M⁻¹ cm⁻¹
same,λmax,"[1]; Table 8a, N-phenyl compounds",321 nm
same,λcrit,[2]; Table 8a,349 nm
C=CC(=O)C1=CN(c2ccccc2)CCC1(C)C [drawing 123],"E (1%, 1 cm)",[1]; Table 8a,874
same,ε,[1]; Table 8a,21000 M⁻¹ cm⁻¹
same,λmax,"[1]; Table 8a, N-phenyl compounds",346 nm
same,λcrit,[2]; Table 8a,373 nm
CC1(C)CCN(c2ccccc2)C=C1C(=O)c1ccc(Br)cc1 [drawing 124],"E (1%, 1 cm)",[1]; Table 8a,629
same,ε,[1]; Table 8a,23300 M⁻¹ cm⁻¹
same,λmax,"[1]; Table 8a, N-phenyl compounds",338 nm
same,λcrit,[2]; Table 8a,366 nm
CCC(=O)C1=CN(c2ccc(OC)cc2)CCC1(C)C [drawing 127],"E (1%, 1 cm)",[1]; Table 8a,862
same,ε,[1]; Table 8a,23500 M⁻¹ cm⁻¹
same,λmax,"[1]; Table 8a, N-phenyl compounds",328 nm
same,λcrit,[2]; Table 8a,350 nm
C=CC(=O)C1=CN(c2ccc(OC)cc2)CCC1(C)C [drawing 128],"E (1%, 1 cm)",[1]; Table 8a,794
same,ε,[1]; Table 8a,21500 M⁻¹ cm⁻¹
same,λmax,"[1]; Table 8a, N-phenyl compounds",350 nm
same,λcrit,[2]; Table 8a,379 nm
COc1ccc(N2C=C(C(=O)c3ccc(F)cc3)C(C)(C)CC2)cc1 [drawing 129],"E (1%, 1 cm)",[1]; Table 8a,571
same,ε,[1]; Table 8a,19350 M⁻¹ cm⁻¹
same,λmax,"[1]; Table 8a, N-phenyl compounds",341 nm
same,λcrit,[2]; Table 8a,369 nm
COc1ccc(N2C=C(C(=O)C3CCCC3=O)C(C)(C)CC2)cc1 (centres unmarked) [drawing 130],"E (1%, 1 cm)",[1]; Table 8b,938
same,λmax,"[1]; Table 8b, N-phenyl compounds",332 nm
same,ε,"[1]; Table 8b, in M-1 cm-1",30675
same,λcrit,[2]; Table 8b,358 nm
Cc1ccc(N2C=C(C(=O)CCCCCCCCC(=O)C3=CN(c4ccc(C)cc4)CCC3(C)C)C(C)(C)CC2)cc1 [drawing 131],"E (1%, 1 cm)",[1]; Table 8b,928
same,λmax,"[1]; Table 8b, N-phenyl compounds",328 nm
same,ε,"[1]; Table 8b, in M-1 cm-1",52737
same,λcrit,[2]; Table 8b,349 nm
COc1ccc(N2C=C(C(=O)COc3ccccc3)C(C)(C)CC2)cc1 [drawing 132],"E (1%, 1 cm)",[1]; Table 8b,759
same,λmax,"[1]; Table 8b, N-phenyl compounds",339 nm
same,ε,"[1]; Table 8b, in M-1 cm-1",26633
same,λcrit,[2]; Table 8b,362 nm
COc1ccc(N2C=C(C(=O)Cc3ccccc3)C(C)(C)CC2)cc1 [drawing 133],"E (1%, 1 cm)",[1]; Table 8b,1008
same,λmax,"[1]; Table 8b, N-phenyl compounds",334 nm
same,ε,"[1]; Table 8b, in M-1 cm-1",33786
same,λcrit,[2]; Table 8b,350 nm
CCCCCCCC(=O)C1=CN(c2ccc(N(C)C)cc2)CCC1(C)C [drawing 134],"E (1%, 1 cm)",[1]; Table 8b,785
same,λmax,"[1]; Table 8b, N-phenyl compounds",338 nm
same,ε,"[1]; Table 8b, in M-1 cm-1",28040
same,λcrit,[2]; Table 8b,371 nm
CCC(=O)C1=CN(c2ccc(C)cc2)CCC1(C)C [drawing 135],"E (1%, 1 cm)",[1]; Table 8b,1347
same,λmax,"[1]; Table 8b, N-phenyl compounds",327 nm
same,ε,"[1]; Table 8b, in M-1 cm-1",34608
same,λcrit,[2]; Table 8b,348 nm
CCC(=O)C1=CN(c2ccc(C(C)(C)C)cc2)CCC1(C)C [drawing 136],"E (1%, 1 cm)",[1]; Table 8b,1069
same,λmax,"[1]; Table 8b, N-phenyl compounds",329 nm
same,ε,"[1]; Table 8b, in M-1 cm-1",31955
same,λcrit,[2]; Table 8b,348 nm
CCC(=O)C1=CN(c2cccc3ccccc23)CCC1(C)C [drawing 137],"E (1%, 1 cm)",[1]; Table 8b,793
same,λmax,"[1]; Table 8b, N-phenyl compounds",321 nm
same,ε,"[1]; Table 8b, in M-1 cm-1",23247
same,λcrit,[2]; Table 8b,346 nm
CC1(C)CCN(c2ccc(C(C)(C)C)cc2)C=C1C(=O)C(F)(F)F [drawing 139],"E (1%, 1 cm)",[1]; Table 9,1260
same,λmax,[1]; [4],337 nm
same,ε,"[1]; Table 9, in M-1 cm-1",42723
same,λcrit,[2]; Table 9,361 nm
COc1ccc(N2C=C(C(=O)C(F)(F)F)C(C)(C)CC2)cc1 [drawing 140],"E (1%, 1 cm)",[1]; Table 9,774
same,λmax,[1]; [4],339 nm
same,ε,"[1]; Table 9, in M-1 cm-1",24235
same,λcrit,[2]; Table 9,365 nm
CN(C)c1ccc(N2C=C(C(=O)C(F)(F)F)C(C)(C)CC2)cc1 [drawing 141],"E (1%, 1 cm)",[1]; Table 9,1004
same,λmax,[1]; [4],354 nm
same,ε,"[1]; Table 9, in M-1 cm-1",32744
same,λcrit,[2]; Table 9,385 nm
Cc1ccc(N2C=C(C(=O)C(F)(F)F)C(C)(C)CC2)cc1 [drawing 142],"E (1%, 1 cm)",[1]; Table 9,1465
same,λmax,[1]; [4],337 nm
same,ε,"[1]; Table 9, in M-1 cm-1",43513
same,λcrit,[2]; Table 9,361 nm
CC1(C)CCN(c2cccc3ccccc23)C=C1C(=O)C(F)(F)F [drawing 143],"E (1%, 1 cm)",[1]; Table 9,985
same,λmax,[1]; [4],325 nm
same,ε,"[1]; Table 9, in M-1 cm-1",32790
same,λcrit,[2]; Table 9,348 nm
Cc1ccc(N2C=CC(C)(C)C(C(=O)C(F)(F)F)=C2)cc1 [drawing 151],"E (1%, 1 cm)",[1]; Table 10,505
same,λmax,[1]; [5],388 nm
same,ε,"[1]; Table 10, in M-1 cm-1",14911
same,λcrit,[2]; Table 10,393 nm
Cc1cc(N2C=CC(C)(C)C=C2)n(C)n1 [drawing 152],"E (1%, 1 cm)",[1]; Table 10,560
same,λmax,[1]; [5],253 nm
same,ε,"[1]; Table 10, in M-1 cm-1",11371
same,λcrit,[2]; Table 10,350 nm
